Laboratory results as given in article PMC8578332 (Scientific Reports, 2021).
Where two headings read alike, the source gives them in different places. Where a SMILES comes first, the peptide text is derived from it. Bridges are numbered along the chain shown (N, C = ends).

Target: human α7-containing nAChRs (Homo sapiens, UniProt P36544)
Test: cell-based
Format: cell-based

Sequence of human α7-containing nAChRs (P36544 23-502 limits assumed): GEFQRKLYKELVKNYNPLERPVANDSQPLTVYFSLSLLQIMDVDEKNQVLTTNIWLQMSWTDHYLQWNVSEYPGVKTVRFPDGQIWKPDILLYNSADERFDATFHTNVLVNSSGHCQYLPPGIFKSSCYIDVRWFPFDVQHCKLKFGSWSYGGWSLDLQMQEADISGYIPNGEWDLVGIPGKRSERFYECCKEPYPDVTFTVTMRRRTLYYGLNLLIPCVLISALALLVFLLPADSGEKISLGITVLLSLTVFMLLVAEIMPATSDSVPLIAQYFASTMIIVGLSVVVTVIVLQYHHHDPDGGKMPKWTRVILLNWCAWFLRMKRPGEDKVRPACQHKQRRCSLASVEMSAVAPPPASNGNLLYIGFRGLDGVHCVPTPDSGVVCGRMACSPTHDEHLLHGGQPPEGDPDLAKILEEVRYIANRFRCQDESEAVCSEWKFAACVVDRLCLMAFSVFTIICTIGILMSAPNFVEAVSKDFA

CC(C)[C@H](NC(=O)[C@@H]1CSSC[C@H](NC(=O)CN)C(=O)N[C@H]2CSSC[C@H](NC(=O)[C@H](C)NC(=O)[C@@H]3CCCN3C(=O)[C@H](CC(N)=O)NC(=O)[C@H](CCCNC(=N)N)NC(=O)[C@H](C)NC2=O)C(=O)N[C@@H](CCCNC(=N)N)C(=O)N[C@@H](Cc2c[nH]cn2)C(=O)N[C@@H](CC(N)=O)C(=O)N[C@@H](Cc2c[nH]cn2)C(=O)N2CCC[C@H]2C(=O)N1)C(N)=O [rAusIA [S1G]] (H-GCCARNPACRHNHPCV-NH2; disulfide 2-15, 3-9)
Ratio (IC50 ratio between gAusIA/rAusIA and its corresponding analogues): 2.00
fold decrease (loss) in potency relative to wildtype of same isomer: two

CC(C)C[C@@H]1NC(=O)[C@H](CCCNC(=N)N)NC(=O)[C@@H]2CSSC[C@H](NC(=O)[C@@H](NC(=O)[C@@H](N)CO)CSSC[C@@H](C(=O)N[C@H](C(N)=O)C(C)C)NC(=O)[C@@H]3CCCN3C(=O)[C@H](Cc3c[nH]cn3)NC(=O)[C@H](CC(N)=O)NC1=O)C(=O)N[C@@H](C)C(=O)N[C@@H](CCCNC(=N)N)C(=O)N[C@@H](CC(N)=O)C(=O)N1CCC[C@H]1C(=O)N[C@@H](C)C(=O)N2 [rAusIA [H11L]] (H-SCCARNPACRLNHPCV-NH2; disulfide 2-15, 3-9)
IC50 (SEM): 30 ± 2.2 µM

CC(C)[C@H](NC(=O)[C@@H]1CSSC[C@H](NC(=O)[C@@H](N)CO)C(=O)N[C@H]2CSSC[C@H](NC(=O)[C@H](C)NC(=O)[C@H](C)NC(=O)[C@H](CC(N)=O)NC(=O)[C@H](CCCNC(=N)N)NC(=O)[C@H](C)NC2=O)C(=O)N[C@@H](CCCNC(=N)N)C(=O)N[C@@H](Cc2c[nH]cn2)C(=O)N[C@@H](CC(N)=O)C(=O)N[C@@H](Cc2c[nH]cn2)C(=O)N2CCC[C@H]2C(=O)N1)C(N)=O [rAusIA [P7A]] (H-SCCARNAACRHNHPCV-NH2; disulfide 2-15, 3-9)
IC50: > 100 µM

CC(C)[C@H](NC(=O)[C@@H]1CSSC[C@@H]2NC(=O)[C@@H](NC(=O)[C@@H](N)CO)CSSC[C@H](NC(=O)[C@H](C)NC(=O)[C@@H]3CCCN3C(=O)[C@H](CC(N)=O)NC(=O)[C@H](CO)NC2=O)C(=O)N[C@@H](CCCNC(=N)N)C(=O)N[C@@H](Cc2c[nH]cn2)C(=O)N[C@@H](CC(N)=O)C(=O)N[C@@H](Cc2c[nH]cn2)C(=O)N2CCC[C@H]2C(=O)N1)C(N)=O [gAusIA [A4S ∆5]] (H-SCCSNPACRHNHPCV-NH2; disulfide 2-8, 3-14)
IC50 (SEM): 0.428 ± 0.112 µM
